Data as given in patent publication US9693556B2, “Herbicidal pyridazinone derivatives” (SYNGENTA LIMITED, priority 2011, dated 2017).

Experiments:
Type in all cases: in vivo
[1] = system: Echinochloa crus-galli (ECHCG); assay: Post-emergence herbicidal glasshouse test on Echinochloa crus-galli; details: post-emergence; 1000 g/h; evaluated after 13 days
Description: (§1) Seeds of a variety of test species are sown in standard soil in pots (Alopecurus myosuroides (ALOMY), Setaria faberi (SETFA), Echinochloa crus-galli (ECHCG), Solanum nigrum (SOLNI), Amaranthus retoflexus (AMARE), Ipomoea hederacea (IPOHE)). After cultivation for one day (pre-emergence) or after 8 days cultivation (post-emergence) under controlled conditions in a glasshouse (at 24/16° C., day/night; 14 hours light; 65% humidity), the plants are sprayed with an aqueous spray solution derived from the formulation of the technical active ingredient in acetone/water (50:50) solution containing 0.5% Tween 20 (polyoxyethelyene sorbitan monolaurate, CAS RN 9005-64-5). Compounds are applied at 1000 g/h. The test plants are then grown in a glasshouse under controlled conditions in a glasshouse (at 24/16° C., day/night; 14 hours light; 65% humidity) and watered twice daily. After 13 days for pre and post-emergence, the test is evaluated for the percentage herbicidal damage caused to the plant. The biological activities are shown in the following table on a five point scale (5=80-100% damage; 4=60-79% damage; 3=40-59% damage; 2=20-39% damage; 1=0-19% damage).

[2] = system: Setaria faberi (SETFA); assay: Post-emergence herbicidal glasshouse test on Setaria faberi; details: post-emergence; 1000 g/h; evaluated after 13 days
Description: as §1

[3] = system: Amaranthus retoflexus (AMARE); assay: Post-emergence herbicidal glasshouse test on Amaranthus retoflexus; details: post-emergence; 1000 g/h; evaluated after 13 days
Description: as §1

[4] = system: Setaria faberi (SETFA); assay: Pre-emergence herbicidal glasshouse test on Setaria faberi; details: pre-emergence; 1000 g/h; evaluated after 13 days
Description: as §1

[5] = system: Echinochloa crus-galli (ECHCG); assay: Pre-emergence herbicidal glasshouse test on Echinochloa crus-galli; details: pre-emergence; 1000 g/h; evaluated after 13 days
Description: as §1

[6] = system: Alopecurus myosuroides (ALOMY); assay: Post-emergence herbicidal glasshouse test on Alopecurus myosuroides; details: post-emergence; 1000 g/h; evaluated after 13 days
Description: as §1

[7] = system: Alopecurus myosuroides (ALOMY); assay: Pre-emergence herbicidal glasshouse test on Alopecurus myosuroides; details: pre-emergence; 1000 g/h; evaluated after 13 days
Description: as §1

[8] = system: Solanum nigrum (SOLNI); assay: Post-emergence herbicidal glasshouse test on Solanum nigrum; details: post-emergence; 1000 g/h; evaluated after 13 days
Description: as §1

[9] = system: Ipomoea hederacea (IPOHE); assay: Pre-emergence herbicidal glasshouse test on Ipomoea hederacea; details: pre-emergence; 1000 g/h; evaluated after 13 days
Description: as §1

[10] = system: Solanum nigrum (SOLNI); assay: Pre-emergence herbicidal glasshouse test on Solanum nigrum; details: pre-emergence; 1000 g/h; evaluated after 13 days
Description: as §1

[11] = system: Amaranthus retoflexus (AMARE); assay: Pre-emergence herbicidal glasshouse test on Amaranthus retoflexus; details: pre-emergence; 1000 g/h; evaluated after 13 days
Description: as §1

[12] = system: Ipomoea hederacea (IPOHE); assay: Post-emergence herbicidal glasshouse test on Ipomoea hederacea; details: post-emergence; 1000 g/h; evaluated after 13 days
Description: as §1

SMILES | POST Application ECHCG herbicidal damage (five point scale) [1] | POST Application SETFA herbicidal damage (five point scale) [2] | POST Application AMARE herbicidal damage (five point scale) [3] | PRE Application SETFA herbicidal damage (five point scale) [4] | PRE Application ECHCG herbicidal damage (five point scale) [5] | POST Application ALOMY herbicidal damage (five point scale) [6] | PRE Application ALOMY herbicidal damage (five point scale) [7] | POST Application SOLNI herbicidal damage (five point scale) [8] | PRE Application IPOHE herbicidal damage (five point scale) [9] | PRE Application SOLNI herbicidal damage (five point scale) [10] | PRE Application AMARE herbicidal damage (five point scale) [11] | POST Application IPOHE herbicidal damage (five point scale) [12]
Cc1c(-c2cnn(C(C)C)c(=O)c2O)ccc(S(C)(=O)=O)c1C1=NOCC1 [Compound 1.012] | 5 (5=80-100% damage) | 5 (5=80-100% damage) | 5 (5=80-100% damage) | 4 (4=60-79% damage) | 5 (5=80-100% damage) | 5 (5=80-100% damage) | 4 (4=60-79% damage) | 5 (5=80-100% damage) | 4 (4=60-79% damage) | 5 (5=80-100% damage) | 5 (5=80-100% damage) | 5 (5=80-100% damage)
CC(C)n1ncc(-c2ccc(C(F)(F)F)cc2S(C)(=O)=O)c(O)c1=O [Compound 1.013] | 5 (5=80-100% damage) | 5 (5=80-100% damage) | 5 (5=80-100% damage) | 5 (5=80-100% damage) | 5 (5=80-100% damage) | 5 (5=80-100% damage) | 5 (5=80-100% damage) | 5 (5=80-100% damage) | 4 (4=60-79% damage) | 5 (5=80-100% damage) | 5 (5=80-100% damage) | 5 (5=80-100% damage)
CC(C)n1ncc(-c2ccc(S(C)(=O)=O)c(C3=NOCC3)c2Cl)c(O)c1=O [Compound 1.014] | 5 (5=80-100% damage) | 5 (5=80-100% damage) | 5 (5=80-100% damage) | 5 (5=80-100% damage) | 5 (5=80-100% damage) | 5 (5=80-100% damage) | 5 (5=80-100% damage) | 5 (5=80-100% damage) | 2 (2=20-39% damage) | 5 (5=80-100% damage) | 5 (5=80-100% damage) | 5 (5=80-100% damage)
CC(C)n1ncc(-c2c(Cl)cccc2Cl)c(O)c1=O [Compound 1.016] | 2 (2=20-39% damage) | 3 (3=40-59% damage) | 5 (5=80-100% damage) | 1 (1=0-19% damage) | 1 (1=0-19% damage) | 2 (2=20-39% damage) | 1 (1=0-19% damage) | 3 (3=40-59% damage) | 1 (1=0-19% damage) | 1 (1=0-19% damage) | 1 (1=0-19% damage) | 2 (2=20-39% damage)
